Experimental data published in BigSolDB 2.1.

Work on `CO[C@H]1O[C@@H]2O[C@@]3(C)CC[C@H]4[C@H](C)CC[C@@H]([C@H]1C)[C@@]24OO3` yielded a solubility (mole fraction) (in ethanol, 289.05 K) of 0.0395, a solubility (mole fraction) (in ethanol, 290.85 K) of 0.0426 and a solubility (mole fraction) (in ethanol, 293.95 K) of 0.0492. It also gave a solubility (mole fraction) (in ethanol, 296.95 K) of 0.0592, a solubility (mole fraction) (in ethanol, 299.05 K) of 0.0682 and a solubility (mole fraction) (in ethanol, 301.05 K) of 0.0764. The solubility (mole fraction) (in ethanol, 303.95 K) was 0.0903, the solubility (mole fraction) (in ethanol, 306.95 K) was 0.11 and the solubility (mole fraction) (in ethanol, 308.45 K) was 0.117. The solubility (mole fraction) (in ethanol, 310.45 K) was 0.133, the solubility (mole fraction) (in ethanol, 313.2 K) was 0.164 and the solubility (mole fraction) (in ethanol, 316.25 K) was 0.2. It also gave a solubility (mole fraction) (in ethanol, 318.95 K) of 0.251, a solubility (mole fraction) (in ethanol, 322.65 K) of 0.315 and a solubility (mole fraction) (in ethanol, 326.05 K) of 0.387. It also gave a solubility (mole fraction) (in ethanol, 328.65 K) of 0.442, a solubility (mole fraction) (in methanol, 289.45 K) of 0.0263 and a solubility (mole fraction) (in methanol, 291.15 K) of 0.0295. The solubility (mole fraction) (in methanol, 294.05 K) was 0.0343, the solubility (mole fraction) (in methanol, 296.95 K) was 0.0405 and the solubility (mole fraction) (in methanol, 299.05 K) was 0.0463. For the same compound, the solubility (mole fraction) (in methanol, 300.75 K) was 0.0519, the solubility (mole fraction) (in methanol, 303.55 K) was 0.0649 and the solubility (mole fraction) (in methanol, 306.35 K) was 0.0824. For the same compound, the solubility (mole fraction) (in methanol, 308.25 K) was 0.0988, the solubility (mole fraction) (in methanol, 310.15 K) was 0.116 and the solubility (mole fraction) (in methanol, 312.95 K) was 0.149. The solubility (mole fraction) (in methanol, 315.65 K) was 0.187, the solubility (mole fraction) (in methanol, 317.35 K) was 0.222 and the solubility (mole fraction) (in methanol, 319.45 K) was 0.297. For the same compound, the solubility (mole fraction) (in methanol, 322.05 K) was 0.355.
